Counter-ions that a name gives are not always drawn.
Experiment: in vitro
Conditions: human, hek293t cells
With CC(Cl)C(=O)N(C)C1CCN(C(=O)c2ccccc2)CC1 (stereo not shown) [6-B18, N-(1-benzoylpiperidin-4-yl)-2-chloro-N-methylpropanamide] the viability at 48 h, 25 µM was 95.9%. Work on CC(Cl)C(=O)N1CCCc2c1ccc1c2ncn1C (stereo not shown) [6-B19, 2-chloro-1-{3-methyl-3H,6H,7H,8H,9H-imidazo[4,5-f]quinolin-6-yl}propan-1-one] yielded a viability at 48 h, 25 µM of 90.9%. In the case of CC(Cl)C(=O)NCC1(n2ccnn2)CC1 (stereo not shown) [6-B20, 2-chloro-N-{[1-(1H-1,2,3-triazol-1-yl)cyclopropyl]methyl}propanamide], the viability at 48 h, 25 µM is reported as 104%. In the case of CC(Cl)C(=O)N1CCc2oc(-c3ccccc3)cc2C1 (stereo not shown) [6-B21, 2-chloro-1-{2-phenyl-4H,5H,6H,7H-furo[3,2-c]pyridin-5-yl}propan-1-one], the viability at 48 h, 25 µM is reported as 67.2%. Compound CC(Cl)C(=O)N[C@H]1C[C@H](C)S(=O)(=O)c2sccc21 (stereo partly drawn) [6-B22, 2-chloro-N-[(2S,4S)-2-methyl-1,1-dioxo-2H,3H,4H-1lambda6-thieno[2,3-b]thiopyran-4-yl]propanamide] has a viability at 48 h, 25 µM of 92.4%. In the case of CN(CCOc1ccccc1F)C(=O)CCl [6-C03, 2-chloro-N-[2-(2-fluorophenoxy)ethyl]-N-methylacetamide], the viability at 48 h, 25 µM is reported as 1.83%. In the case of CC(C)(CNC(=O)CCl)CC1CCOCC1 [6-C04, 2-chloro-N-[2,2-dimethyl-3-(oxan-4-yl)propyl]acetamide], the viability at 48 h, 25 µM is reported as 130%. For CC1(C)CN(C(=O)CCl)CCO1 [6-C05, 2-chloro-1-(2,2-dimethylmorpholin-4-yl)ethan-1-one], the viability at 48 h, 25 µM was 2.63%. Cc1ccccc1CC(C)NC(=O)CCl (stereo not shown) [6-C06, 2-chloro-N-[1-(2-methylphenyl)propan-2-yl]acetamide] gave a viability at 48 h, 25 µM of 75.4%. For Cc1nn(C)c(C)c1NC(=O)C(C)Cl (stereo not shown) [6-C07, 2-chloro-N-(1,3,5-trimethyl-1H-pyrazol-4-yl)propanamide], the viability at 48 h, 25 µM was 116%. O=C(CCl)NCC(c1ccccc1)c1c[nH]c2ccccc12 (stereo not shown) [6-C08, 2-chloro-N-[2-(1H-indol-3-yl)-2-phenylethyl]acetamide] showed a viability at 48 h, 25 µM of 0.717%. COc1ccccc1CN(C)C(=O)CCl [6-C09, 2-chloro-N-[(2-methoxyphenyl)methyl]-N-methylacetamide] gave a viability at 48 h, 25 µM of 1.06%. With CC1CCCCC1NC(=O)CCl (stereo not shown) [6-C10, 2-chloro-N-(2-methylcyclohexyl)acetamide] the viability at 48 h, 25 µM was 93.3%. Work on N#CCSc1ccccc1NC(=O)CCl [6-C11, 2-chloro-N-{2-[(cyanomethyl)sulfanyl]phenyl}acetamide] yielded a viability at 48 h, 25 µM of 2.08%. With CC(Cl)C(=O)N(C)CCOc1ccc(Cl)cc1 (stereo not shown) [6-C12, 2-chloro-N-[2-(4-chlorophenoxy)ethyl]-N-methylpropanamide] the viability at 48 h, 25 µM was 81.3%. With O=C(CCl)NC(Cc1ccccc1)C(=O)O (stereo not shown) [6-C13, 2-(2-chloroacetamido)-3-phenylpropanoic acid] the viability at 48 h, 25 µM was 97.4%. In the case of O=C(CCl)NCc1ccccc1OC1CCCC1 [6-C14, 2-chloro-N-{[2-(cyclopentyloxy)phenyl]methyl}acetamide], the viability at 48 h, 25 µM is reported as 2.1%. With COc1cc(Cl)c(C)cc1NC(=O)C(C)Cl (stereo not shown) [6-C15, 2-chloro-N-(4-chloro-2-methoxy-5-methylphenyl)propanamide] the viability at 48 h, 25 µM was 102%. CN(C)C(=O)c1ccc(CNC(=O)CCl)cc1 [6-C16, 4-[(2-chloroacetamido)methyl]-N,N-dimethylbenzamide] showed a viability at 48 h, 25 µM of 67.8%. In the case of CC(Cl)C(=O)Nc1cccnc1Cl (stereo not shown) [6-C17, 2-chloro-N-(2-chloropyridin-3-yl)propanamide], the viability at 48 h, 25 µM is reported as 106%. In the case of O=C(CCl)Nc1ccc(Oc2cccc(Cl)c2)cc1 [6-C18, 2-chloro-N-[4-(3-chlorophenoxy)phenyl]acetamide], the viability at 48 h, 25 µM is reported as 0.765%. Compound O=C(CCl)Nc1nccc(Cl)n1 [6-C19, 2-chloro-N-(4-chloropyrimidin-2-yl)acetamide] has a viability at 48 h, 25 µM of 100%. CCN(CC)S(=O)(=O)c1ccc(Cl)c(NC(=O)C(C)Cl)c1 (stereo not shown) [6-C20, 2-chloro-N-[2-chloro-5-(diethylsulfamoyl)phenyl]propanamide] gave a viability at 48 h, 25 µM of 79.6%. O=C(CCl)NCC(F)(F)c1cccnc1 [6-C21, 2-chloro-N-[2,2-difluoro-2-(pyridin-3-yl)ethyl]acetamide] showed a viability at 48 h, 25 µM of 104%. Work on O=C(CCl)NC(C1CC1)C1CC1 [6-C22, 2-chloro-N-(dicyclopropylmethyl)acetamide] yielded a viability at 48 h, 25 µM of 66.4%. Compound O=C(CCl)Nc1nc2c(s1)CCc1ccccc1-2 [6-D03, 2-chloro-N-{4H,5H-naphtho[1,2-d][1,3]thiazol-2-yl}acetamide] has a viability at 48 h, 25 µM of 0.611%. For Cc1nc2ccccc2n(CCCN(C)C(=O)CCl)c1=O [6-D04, 2-chloro-N-methyl-N-[3-(3-methyl-2-oxo-1,2-dihydroquinoxalin-1-yl)propyl]acetamide], the viability at 48 h, 25 µM was 1.73%. Work on CC(Cl)C(=O)N(C)C(C)c1ccccc1N1CCCS1(=O)=O (stereo not shown) [6-D05, 2-chloro-N-{1-[2-(1,1-dioxo-1lambda6,2-thiazolidin-2-yl)phenyl]ethyl}-N-methylpropanamide] yielded a viability at 48 h, 25 µM of 104%. Compound CC(Cl)C(=O)Nc1ccc([N+](=O)[O-])cc1C(F)(F)F (stereo not shown) [6-D06, 2-chloro-N-[4-nitro-2-(trifluoromethyl)phenyl]propanamide] has a viability at 48 h, 25 µM of 98.9%. With CC(Cl)C(=O)N1CCNC(=O)C1c1c(F)cccc1Cl (stereo not shown) [6-D07, 3-(2-chloro-6-fluorophenyl)-4-(2-chloropropanoyl)piperazin-2-one] the viability at 48 h, 25 µM was 107%. With Cn1cc(CN(C(=O)CCl)c2ccc(F)cc2)cn1 [6-D08, 2-chloro-N-(4-fluorophenyl)-N-[(1-methyl-1H-pyrazol-4-yl)methyl]acetamide] the viability at 48 h, 25 µM was 2.1%. Cc1ncccc1NC(=O)[C@H](C)NC(=O)C(C)Cl (stereo partly drawn) [6-D09, 2-chloro-N-[(1S)-1-[(2-methylpyridin-3-yl)carbamoyl]ethyl]propanamide] gave a viability at 48 h, 25 µM of 99.8%. CC(Cl)C(=O)NC(=O)NC12CC3CC(CC(C3)C1)C2 (stereo not shown) [6-D10, 1-(adamantan-1-yl)-3-(2-chloropropanoyl)urea] gave a viability at 48 h, 25 µM of 101%. For O=C(CCl)NCC(c1nccs1)N1CCCC1 (stereo not shown) [6-D11, 2-chloro-N-[2-(pyrrolidin-1-yl)-2-(1,3-thiazol-2-yl)ethyl]acetamide hydrochloride], the viability at 48 h, 25 µM was 92.9%. Work on O=C(CCl)Nc1ccccc1C(=O)Nc1ccc(F)cc1 [6-D12, 2-(2-chloroacetamido)-N-(4-fluorophenyl)benzamide] yielded a viability at 48 h, 25 µM of 0.805%. In the case of CC(Cl)C(=O)N[C@H](C)c1cnnn1C (stereo partly drawn) [6-D13, 2-chloro-N-[(1R)-1-(1-methyl-1H-1,2,3-triazol-5-yl)ethyl]propanamide], the viability at 48 h, 25 µM is reported as 103%. With CC(Cl)C(=O)N1CCCc2c1ccnc2N(C)C (stereo not shown) [6-D14, 2-chloro-1-[5-(dimethylamino)-1,2,3,4-tetrahydro-1,6-naphthyridin-1-yl]propan-1-one] the viability at 48 h, 25 µM was 109%. For CC1=C(c2ccco2)CN(C(=O)C(C)Cl)CC1 (stereo not shown) [6-D15, 2-chloro-1-[5-(furan-2-yl)-4-methyl-1,2,3,6-tetrahydropyridin-1-yl]propan-1-one], the viability at 48 h, 25 µM was 103%. With CC(Cl)C(=O)N1CCCC1CC(=O)c1cnn(C)c1 (stereo not shown) [6-D16, 2-chloro-1-{2-[2-(1-methyl-1H-pyrazol-4-yl)-2-oxoethyl]pyrrolidin-1-yl}propan-1-one] the viability at 48 h, 25 µM was 116%. With CC(CO)N(Cc1ccccc1Cl)C(=O)CCl (stereo not shown) [6-D17, 2-chloro-N-[(2-chlorophenyl)methyl]-N-(1-hydroxypropan-2-yl)acetamide] the viability at 48 h, 25 µM was 1.39%. Compound CC(Cl)C(=O)N(CCc1ccc(F)cc1F)C(C)C (stereo not shown) [6-D18, 2-chloro-N-[2-(2,4-difluorophenyl)ethyl]-N-(propan-2-yl)propanamide] has a viability at 48 h, 25 µM of 101%. Work on Cc1ccc(C2CS(=O)(=O)CCN2C(=O)C(C)Cl)o1 (stereo not shown) [6-D19, 4-(2-chloropropanoyl)-3-(5-methylfuran-2-yl)-1lambda6-thiomorpholine-1,1-dione] yielded a viability at 48 h, 25 µM of 107%. Work on CC(Cl)C(=O)N[C@H]1C[C@H](Cn2cncn2)C1 (stereo partly shown) [6-D20, 2-chloro-N-[(1r,3r)-3-[(1H-1,2,4-triazol-1-yl)methyl]cyclobutyl]propanamide] yielded a viability at 48 h, 25 µM of 105%. In the case of COC1(CNC(=O)CCl)CCC(C(F)F)CC1 (stereo not shown) [6-D21, 2-chloro-N-{[4-(difluoromethyl)-1-methoxycyclohexyl]methyl}acetamide], the viability at 48 h, 25 µM is reported as 52.3%. With CC(Cl)C(=O)N(Cc1ccccc1)C1C=CS(=O)(=O)C1 (stereo not shown) [6-D22, N-benzyl-2-chloro-N-(1,1-dioxo-2,3-dihydro-1lambda6-thiophen-3-yl)propanamide] the viability at 48 h, 25 µM was 98%. Work on Cc1ccc(CN(C(=O)CCl)C2CC2)o1 [6-E03, 2-chloro-N-cyclopropyl-N-[(5-methylfuran-2-yl)methyl]acetamide] yielded a viability at 48 h, 25 µM of 0.647%. For O=C(CCl)NCc1[nH]nc2c1CCCC2 [6-E04, 2-chloro-N-[(4,5,6,7-tetrahydro-2H-indazol-3-yl)methyl]acetamide], the viability at 48 h, 25 µM was 59.9%. For CC(Cl)C(=O)NC(=O)NCc1cccs1 (stereo not shown) [6-E05, 3-(2-chloropropanoyl)-1-[(thiophen-2-yl)methyl]urea], the viability at 48 h, 25 µM was 106%. Compound Cc1c(NC(=O)C(C)Cl)c(=O)n(-c2ccccc2)n1C (stereo not shown) [6-E06, 2-chloro-N-(1,5-dimethyl-3-oxo-2-phenyl-2,3-dihydro-1H-pyrazol-4-yl)propanamide] has a viability at 48 h, 25 µM of 109%. Compound CC(Cl)C(=O)N1CC(=O)Nc2ccccc21 (stereo not shown) [6-E07, 4-(2-chloropropanoyl)-1,2,3,4-tetrahydroquinoxalin-2-one] has a viability at 48 h, 25 µM of 117%. CC(Cl)C(=O)Nc1cccc([N+](=O)[O-])c1 (stereo not shown) [6-E08, 2-chloro-N-(3-nitrophenyl)propanamide] showed a viability at 48 h, 25 µM of 98.7%. O=C(CCl)Nc1cc(-n2nnnc2C2CC2)ccc1F [6-E09, 2-chloro-N-[5-(5-cyclopropyl-1H-1,2,3,4-tetrazol-1-yl)-2-fluorophenyl]acetamide] gave a viability at 48 h, 25 µM of 2.11%. Work on Cc1cc(C)c(NC(=O)C(C)Cl)c(Cl)c1 (stereo not shown) [6-E10, 2-chloro-N-(2-chloro-4,6-dimethylphenyl)propanamide] yielded a viability at 48 h, 25 µM of 109%. CC(Cl)C(=O)NCCC1=CCCCC1 (stereo not shown) [6-E11, 2-chloro-N-[2-(cyclohex-1-en-1-yl)ethyl]propanamide] gave a viability at 48 h, 25 µM of 99%. Work on O=C(CCl)NC(c1ccccc1)C1CCCCC1 (stereo not shown) [6-E12, 2-chloro-N-[cyclohexyl(phenyl)methyl]acetamide] yielded a viability at 48 h, 25 µM of 1.12%.

From paper PMC11995724, “Antibiotic target discovery by integrated phenotypic and activity-based profiling of electrophilic fragments” (Cell chemical biology, 2025)
